Counter-ions that a name gives are not always drawn.
Columns and labels:
[1] = test system: spontaneously hypertensive rats; assay: Antihypertensive activity (systolic blood pressure, indirect tail-cuff method) in conscious spontaneously hypertensive rats; type: in vivo; settings: Rattus norvegicus, po; os, conscious SHR, 1, 3, 5 and 7 hours after administration; from linear regression of dose-response curve; hydrochloride salt except AC 2, 4 and 9 (free bases); read-out: ED25 (drug dose producing a 25% decrease in systolic blood pressure)
Procedure: Antihypertensive activity was evaluated in male spontaneously hypertensive rats (SHR, Wister-Kyoto strain, 15-25 weeks old). The determination of blood pressure was performed by the indirect method (M. Gerald et al, Arzneim.-Forsch., 18, 1825, 1968). The animals were prewarmed in a heating chamber at a temperature from 35° to 37° C. for a period of 15 minutes before administering the compounds. The compounds tested by the oral route were dissolved or suspended in a 0.5% methylcellulose solution. Controls were given only the vehicle. Systolic blood pressure and heart rate were measured 1, 3, 5 and 7 hours after drug administration by means of a tail-cuff and the pulse pick-up method using a recorder.
In the Table I, the antihypertensive activity was expressed as ED25, which is the drug dose producing a 25% decrease in systolic blood pressure in conscious spontaneously hypertensive rats. The ED25 was calculated from the linear regression of the dose-response curve.
(§1) ^a all compounds were tested as the hydrochloride salt, except for AC
(§2) 2, 4 and 9 (tested as free bases)

[2] = LD50 in the mouse per os (acute toxicity); settings: in vivo, po, tested as hydrochloride salt except AC 2, 4 and 9 (free bases)
Procedure: The LD50 of the compounds according to the invention was determined in the mouse per os following the method described by C. S. Weil (Biometrics,8, 249, 1952).
In the following Table I, the numbers under AC (active compound) indicate the compounds described in the corresponding Examples (thus "1" indicates the compound prepared in Example 1).
as §1, §2

| SMILES | ED25 [1] [mg/kg] | LD50 [2] [mg/kg] |
| --- | --- | --- |
| COc1ccccc1N1CCN(CCC(=O)Nc2ccc(S(C)(=O)=O)cc2)CC1 [Example 2, 4-Methylsulphonyl-β-[4-(2-methoxyphenyl)-1-piperazinyl]-propionylanilide] | 7.5 | > 3000 |
| COc1ccccc1N1CCN(CCC(=O)Nc2ccc(S(N)(=O)=O)cc2)CC1 [Example 4, 4-Sulphamoyl-β-[4-(2-methoxyphenyl)-1-piperazinyl]-propionylanilide] | 8.1 | > 3000 |
| COc1ccccc1N1CCN(CCC(=O)Nc2ccc(C(N)=O)cc2)CC1 [Example 5, 4-Carbamoyl-β-[4-(2-methoxyphenyl)-1-piperazinyl]-propionylanilide] | 54.5 | > 3000 |
| COc1ccccc1N1CCN(CCC(=O)Nc2ccc(C(C)=O)cc2)CC1 [Example 6a, 4-acetyl-β-[4-(2-methoxyphenyl)-1-piperazinyl]-propionylanilide] | 58.5 | 2200 |
| COc1ccccc1N1CCN(CCC(=O)Nc2cccc(C(F)(F)F)c2)CC1 [Example 6b, 3-trifluoromethyl-β-[4-(2-methoxyphenyl)-1-piperazinyl]-propionylanilide hydrochloride] | 48.8 | 1600 |
| COc1ccc(NC(=O)CCN2CCN(c3ccccc3OC)CC2)cc1 [Example 6c, 4-methoxy-β-[4-(2-methoxyphenyl)-1-piperazinyl]-propionylanilide] | 10 | > 3000 |
| COc1cccc(NC(=O)CCN2CCN(c3ccccc3OC)CC2)c1 [Example 6d, 3-methoxy-β-[4-(2-methoxyphenyl)-1-(piperazinyl]-propionylanilide hydrochloride] | 69 | 649 |
| COc1ccccc1N1CCN(CCC(=O)Nc2ccc(C#N)cc2)CC1 [Example 6f, 4-cyano-β-[4-(2-methoxyphenyl)-1-piperazinyl]-propionylanilide] | 17.2 | 320 |
| COc1ccccc1N1CCN(CCC(=O)Nc2ccc([N+](=O)[O-])cc2)CC1 [Example 7, 4-Nitro-β-[4-(2-methoxyphenyl)-1-piperazinyl]-propionylanilide] | 50.5 | 2100 |
| COc1ccccc1N1CCN(CC(=O)Nc2ccc(N)cc2)CC1 [Example 8a] | 70.2 | 1000 |
| COc1ccccc1N1CCN(CCC(=O)Nc2ccc(C(C)O)cc2)CC1 (stereo not drawn) [Example 9, 4-(1Hydroxyethyl)-β-[4-(2-methoxyphenyl)-1-piperazinyl]-propionylanilide] | 69 | 537 |
| COc1ccccc1N1CCN(C(C)CC(=O)Nc2ccc(S(N)(=O)=O)cc2)CC1 (stereo not drawn) [Example 10, 4-Sulphamoyl-β-[4-(2-methoxyphenyl)-1-piperazinyl]-butyrylanilide] | 8.7 | > 3000 |
| COc1ccccc1N1CCN(CCC(=O)Nc2ccc(S(=O)(=O)NC(C)=O)cc2)CC1 [Example 11, 4-Acetylsulphamoyl-β-[4-(2-methoxyphenyl)-1-piperazinyl]-propionylanilide] | 100 | > 3000 |
| COc1ccccc1N1CCN(CCC(=O)Nc2ccc(NC(C)=O)cc2)CC1 [Example 12, 4-Acetylamino-β-[4-(2-methoxyphenyl)-1-piperazinyl]-propionylanilide] | 100 | > 3000 |
| COc1ccccc1N1CCN(CCC(=O)Nc2cccc(S(N)(=O)=O)c2)CC1 [Example 13, 3-Sulphamoyl-β-[4-(2-methoxyphenyl)-1-piperazinyl]-propionylanilide hydrate] | 100 | > 3000 |
| COc1ccccc1N1CCN(CCC(=O)Nc2cccc(Cl)c2)CC1 [Example 14, 3-Chloro-β-[4-(2-methoxyphenyl)-1-piperazinyl]-propinylanilide] | 100 | > 3000 |
| COc1ccccc1N1CCN(CCC(=O)Nc2ccc3c(c2)OCO3)CC1 [Example 19, 3,4-Methylenedioxy-β-[4-(2-methoxyphenyl)-1-piperazinyl]-propionylanilide] | 100 | 340 |
| COc1ccccc1N1CCN(CCC(=O)Nc2cc(OC)c(OC)c(OC)c2)CC1 [Example 20, 3,4,5-Trimethoxy-β-[4-(2-methoxyphenyl)-1-piperazinyl]-propionylanilide hydrochloride] | 60 | 730 |
| COc1ccccc1N1CCN(CCC(=O)Nc2ccc(S(=O)(=O)N(C)C)cc2)CC1 [Example 21, 4-(Dimethylsulphamoyl)-β-[4-(2-methoxyphenyl)-1-piperazinyl]-propionylanilide] | 60 | > 3000 |
